Assay results published in patent US5972636A (priority 1997, dated 1999).
Like-named read-outs stand apart in the source and are kept apart here.

What was measured:
[1] = tested on: new protease (multipain) from skeletal muscle; conditions: for effect of nucleotides on Ub-125I-lysozyme hydrolysis by the purified enzyme, in words / Relative activity (%), degradation of Ub-125I-lysozyme by the new activity: Table III; for Relative activity (%), degradation of Ub-125I-lysozyme by the new activity: 2 mM of the nucleotides or 10 mM PPi, 37° C. 1 hour; for stimulation of Ub-lysozyme hydrolysis by the new protease: ATP 2 mM where stated, 60 min; for Relative activity (%) NEW […] Ub-lysozyme / Relative activity (%) NEW […] OH/O2 - treated hemoglobin / Relative activity (%) NEW […] lysozyme: Table IV, 37° C. 1 h; for Relative activity (%) NEW […] Ub-lysozyme: DFP 1 mM, Cystatin A 4 uM, Hemin 0.1 mM, NEM 1 mM, Leupeptin 0.1 mM, E64 0.1 mM, NaOleate 0.125 mM, SDS 0.01%, o-Phenanthroline 0.1 mM; for Relative activity (%) NEW […] OH/O2 - treated hemoglobin / Relative activity (%) NEW […] lysozyme: concentrations as in E1
[2] = tested on: 1500 kDa complex (proteasome-multipain); conditions: for effect of nucleotides on Ub-125I-lysozyme hydrolysis by the complex, in words / Realtive Activity (%) Complex, Ub-lysozyme degradation: Table VIII; for Realtive Activity (%) Complex, Ub-lysozyme degradation: 2 mM of the nucleotide or 10 mM PPi
[3] = biological target: T1, proteasome from skeletal muscle (Oryctolagus cuniculus, UniProt G1T4Q9); assay type: biochemical, rabbit
T1 construct: from tissue; host or cells: rabbit skeletal (psoas) muscle, proteasome fraction after Mono Q and Superose 6

[4] = Table VII, substrate Ub-125I-lysozyme, None = 100, 2 mM ATP, concentrations as in E5
[5] = Table VII, None = 100, 2 mM ATP, DFP 1 mM, Cystatin 4 μM, NEM 1 mM, Leupeptin 100 μM, E-64 100 μM, Sodium oleate 125 μM, SDS 0.01%, o-Phenanthroline 100 μM

Row | Molecule | Relative activity (%), degradation of Ub-125I-lysozyme by the new activity ([1]; None = 100) [%] | Realtive Activity (%) Complex, Ub-lysozyme degradation ([2]; None = 100) [%] | Realtive Activity (%) Proteasome (sLLVT-MCA) [3] [%] | Relative activity (%) […]-MCA [3] [%] | Relative activity (%) NEW […] Ub-lysozyme ([1]; None = 100, 2 mM ATP) [%] | Relative activity (%) NEW […] OH/O2 - treated hemoglobin ([1]; None = 100, 2 mM ATP) [%] | Relative activity (%) NEW […] lysozyme ([1]; None = 100, 2 mM ATP) [%] | Realtive Activity (%) Multipain [1, 4] [%] | Realtive Activity (%) Complex (Ub-125I-Lysozyme) [2, 5] [%] | other results
1 | Nc1ncnc2c1ncn2[C@@H]1O[C@H](COP(=O)(O)OP(=O)(O)O)[C@@H](O)[C@H]1O [ADP] | 113 | 146 | – | – | – | – | – | – | – | effect of nucleotides on Ub-125I-lysozyme hydrolysis by the purified enzyme, in words [1]: no significant effect; effect of nucleotides on Ub-125I-lysozyme hydrolysis by the complex, in words [2]: no significant effect
2 | Nc1ncnc2c1ncn2[C@@H]1O[C@H](COP(=O)(O)O)[C@@H](O)[C@H]1O [AMP] | 130 | 99 | – | – | – | – | – | – | – | effect of nucleotides on Ub-125I-lysozyme hydrolysis by the purified enzyme, in words [1]: no significant effect; effect of nucleotides on Ub-125I-lysozyme hydrolysis by the complex, in words [2]: no significant effect
3 | Nc1ncnc2c1ncn2[C@@H]1O[C@H](COP(=O)(O)OP(=O)(O)OP(O)(O)=S)[C@@H](O)[C@H]1O [ATP-γ-S, adenosine 5'-o-thiotriphosphate] | 103 | 135 | – | – | – | – | – | – | – | effect of nucleotides on Ub-125I-lysozyme hydrolysis by the purified enzyme, in words [1]: No stimulation; effect of nucleotides on Ub-125I-lysozyme hydrolysis by the complex, in words [2]: No stimulation
4 | Nc1ccn([C@@H]2O[C@H](COP(=O)(O)OP(=O)(O)OP(=O)(O)O)[C@@H](O)[C@H]2O)c(=O)n1 [CTP] | 373 | 410 | – | – | – | – | – | – | – | stimulation of Ub-lysozyme hydrolysis by the new protease [1]: ~4 fold
5 | CC(C)C[C@H](NC(=O)[C@H]1O[C@@H]1C(=O)O)C(=O)NCCCCNC(=N)N [E64] | – | – | 100 | 100 | 100 | 100 | 100 | 100 | 96 | effect on Ub-conjugate breakdown by the new protease (multipain), in words ([1]; text): not at all; effect on Ub-conjugate breakdown by the new protease (multipain), in words ([1]; text, listed as E-64): unable to inhibit multipain; effect on the complex, in words ([2]; Table VII): did not show any significant effect on the complex
6 | Nc1nc2c(ncn2[C@@H]2O[C@H](COP(=O)(O)OP(=O)(O)OP(=O)(O)O)[C@@H](O)[C@H]2O)c(=O)[nH]1 [GTP] | 435 | 326 | – | – | – | – | – | – | – | stimulation of Ub-lysozyme hydrolysis by the new protease [1]: ~4 fold
7 | CC(=O)N[C@@H](CC(C)C)C(=O)N[C@@H](CC(C)C)C(=O)N[C@H](C=O)CCCNC(=N)N [Leupeptin] | – | – | 83 | 83 | 69 | 73 | 72 | 69 | 75 | inhibition of Ub-conjugate breakdown by the new protease ([1]; cystatin B at concentrations similar to cystatin A): 30%; effect on the complex, in words ([2]; Table VII): did not show any significant effect on the complex
8 | CCN1C(=O)C=CC1=O [NEM, N-ethylmaleimide] | – | – | 37 | 37 | 29 | 30 | 27 | 29 | 33 | effect on Ub-conjugate breakdown by the new protease (multipain), in words ([1]; text): strongly inhibited this activity; inhibition of conjugate breakdown by the complex ([2]; Table VII): 65%
9 | CCCCCCCC/C=C\CCCCCCCC(=O)[O-].[Na+] [NaOleate, Sodium oleate] | – | – | 179 | 179 | 29 | 40 | 34 | 29 | 38 | –
10 | CCCCCCCCCCCCOS(=O)(=O)[O-].[Na+] [SDS, sodium dodecyl sulfate] | – | – | 125 | 125 | – | 42 | 46 | – | – | Realtive Activity (%) Multipain [1]: 44%; Relative activity (%) NEW PROTEASE Ub-lysozyme [1]: 44%; Realtive Activity (%) Complex (Ub-125I-Lysozyme) [2]: 46%
11 | O=c1ccn([C@@H]2O[C@H](COP(=O)(O)OP(=O)(O)OP(=O)(O)O)[C@@H](O)[C@H]2O)c(=O)[nH]1 [UTP] | 108 | 174 | – | – | – | – | – | – | – | –
12 | c1cnc2c(c1)ccc1cccnc12 [o-Phenanthroline] | – | – | 60 | 60 | 48 | 54 | 55 | 48 | 57 | effect on Ub-conjugate breakdown by the new protease (multipain), in words ([1]; text): showed some inhibition; inhibition of conjugate breakdown by the complex ([2]; Table VII): about 60%
13 | CBZ-ala-arg-arg-CK | – | – | – | – | – | – | – | – | – | concentration that inactivates multipain [1]: 50 µM; concentration that inactivates the 1500 kDa complex [2]: 50 µM
14 | Hemin | – | – | – | 0 | 0 | 7 | 0 | – | – | effect on Ub-conjugate breakdown by the new protease (multipain), in words ([1]; text): blocked conjugate-degrading activity; effect on Ub-conjugate breakdown by the new protease (multipain), in words ([1]; text, listed as hemin): is sensitive to
15 | cystatin C: member of the cystatin superfamily (protein, UniProt P01034 27-146, looked up) Cystatin-C: SSPGKPPRLVGGPMDASVEEEGVRRALDFAVGEYNKASNDMYHSRALQVVRARKQIVAGVNYFLDVELGRTTCTKTQPNLDNCPFHDQPHLKRKAFCSFQIYAVPWQGTMTLSKSTCQDA | – | – | – | – | – | – | – | – | – | effect on Ub-conjugate breakdown by the new protease (multipain), in words [1]: no significant effect
16 | cystatin B (protein, UniProt P04080 1-98, looked up) Cystatin-B: MMCGAPSATQPATAETQHIADQVRSQLEEKENKKFPVFKAVSFKSQVVAGTNYFIKVHVGDEDFVHLRVFQSLPHENKPLTLSNYQTNKAKHDELTYF | – | – | – | – | – | – | – | – | – | inhibition of Ub-conjugate breakdown by the new protease [1]: 55%
